Source: patent US20230090337A1, “PHARMACEUTICAL FORMULATIONS COMPRISING 6-CHLORO-7-(4-(4-CHLOROBENZYL)PIPERAZIN-1 -YL)-2-(1,3-DIMETHYL-1 HPYRAZOL-4-YL)-3H- IMIDAZO[4,5-B]PYRIDINE” (ELLIPSES PHARMA LTD, priority 2020, published 2023)
Read-outs that look alike come from different tables or passages of the source. Each block holds one molecule with its values, some of them ahead of it.

Tests used:
[1] = Excipient solubilising ability (20% w/v aqueous excipient solutions, DMSO spike, observed for precipitation); format: physicochemical; conditions: for solubility: aqueous with cosolvent or surfactant or cyclodextrin, kinetic from dmso stock
Description: Promising non-ionic surfactants were further tested. Each was prepared as a 20% w/v aqueous solution.
The excipients tested were (HLB): Cremophor EL (12-14); Cremophor RH 40 (14-16); Labrasol ALF; Solutol HS15 (˜16); Poloxamer P124 (12-18); TPGS (˜13); and Gelucire 44/14 (˜11).
Initially, the concentrated DMSO solution was prepared at 30 mg/mL to give a starting concentration of 3 mg/mL of the compound of Formula (1) in the aqueous vehicle, and the concentration was reduced until a semi-solid excipient was identified which maintained a clear solution of the compound. No excipients solubilised the compound at concentrations >1.5 mg/mL in this experiment, but TPGS unexpectedly performed best—solubilising the compound at a concentration of 1.5 mg/mL in the aqueous vehicle (e.g. 100 μL portion of a 15 mg/mL solution of the compound in DMSO was added to each excipient solution to achieve the final concentration of 1.5 mg/mL). In TPGS the solution remained clear for up to 5 hours.

Aurora A = molecular target: T1, Aurora A (Homo sapiens, UniProt O14965); conditions: cited from earlier work
T1 sequence (O14965 1-403): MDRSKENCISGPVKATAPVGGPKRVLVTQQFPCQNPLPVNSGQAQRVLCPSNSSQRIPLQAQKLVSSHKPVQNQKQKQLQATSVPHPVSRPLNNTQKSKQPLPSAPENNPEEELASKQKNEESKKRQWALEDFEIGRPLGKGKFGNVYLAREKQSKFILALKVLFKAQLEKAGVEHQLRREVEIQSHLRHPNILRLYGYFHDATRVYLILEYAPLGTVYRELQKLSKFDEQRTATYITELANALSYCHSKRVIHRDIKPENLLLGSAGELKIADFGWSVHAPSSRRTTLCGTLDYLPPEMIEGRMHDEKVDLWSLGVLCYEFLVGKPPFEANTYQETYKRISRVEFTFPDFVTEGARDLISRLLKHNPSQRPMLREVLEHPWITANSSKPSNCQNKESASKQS

Aurora B = Aurora B (Homo sapiens, UniProt Q96GD4); conditions: cited from earlier work
Aurora B, sequence (Q96GD4 whole entry): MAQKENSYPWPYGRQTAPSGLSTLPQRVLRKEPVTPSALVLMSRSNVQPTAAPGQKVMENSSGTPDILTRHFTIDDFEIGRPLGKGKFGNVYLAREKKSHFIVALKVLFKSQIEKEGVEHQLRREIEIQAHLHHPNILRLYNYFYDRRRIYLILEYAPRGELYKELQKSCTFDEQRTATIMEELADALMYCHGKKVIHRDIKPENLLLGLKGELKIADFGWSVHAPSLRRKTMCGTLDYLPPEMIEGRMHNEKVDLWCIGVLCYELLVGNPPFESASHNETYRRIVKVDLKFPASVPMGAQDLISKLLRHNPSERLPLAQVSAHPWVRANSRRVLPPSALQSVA

Aurora C = molecular target: T2, Aurora C (Homo sapiens, UniProt Q9UQB9); conditions: cited from earlier work
T2 sequence (Q9UQB9 1-309): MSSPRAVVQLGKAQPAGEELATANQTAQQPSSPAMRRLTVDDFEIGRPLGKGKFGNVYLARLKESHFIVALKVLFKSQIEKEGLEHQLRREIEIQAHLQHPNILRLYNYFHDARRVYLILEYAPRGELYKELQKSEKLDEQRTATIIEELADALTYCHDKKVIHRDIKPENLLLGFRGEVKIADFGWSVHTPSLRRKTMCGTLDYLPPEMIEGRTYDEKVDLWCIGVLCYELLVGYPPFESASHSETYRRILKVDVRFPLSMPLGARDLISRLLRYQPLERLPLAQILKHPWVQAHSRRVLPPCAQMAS

FLT3 kinases = molecular target: T3, FLT3 kinases (Homo sapiens, UniProt P36888); conditions: cited from earlier work
T3 sequence (P36888 27-993): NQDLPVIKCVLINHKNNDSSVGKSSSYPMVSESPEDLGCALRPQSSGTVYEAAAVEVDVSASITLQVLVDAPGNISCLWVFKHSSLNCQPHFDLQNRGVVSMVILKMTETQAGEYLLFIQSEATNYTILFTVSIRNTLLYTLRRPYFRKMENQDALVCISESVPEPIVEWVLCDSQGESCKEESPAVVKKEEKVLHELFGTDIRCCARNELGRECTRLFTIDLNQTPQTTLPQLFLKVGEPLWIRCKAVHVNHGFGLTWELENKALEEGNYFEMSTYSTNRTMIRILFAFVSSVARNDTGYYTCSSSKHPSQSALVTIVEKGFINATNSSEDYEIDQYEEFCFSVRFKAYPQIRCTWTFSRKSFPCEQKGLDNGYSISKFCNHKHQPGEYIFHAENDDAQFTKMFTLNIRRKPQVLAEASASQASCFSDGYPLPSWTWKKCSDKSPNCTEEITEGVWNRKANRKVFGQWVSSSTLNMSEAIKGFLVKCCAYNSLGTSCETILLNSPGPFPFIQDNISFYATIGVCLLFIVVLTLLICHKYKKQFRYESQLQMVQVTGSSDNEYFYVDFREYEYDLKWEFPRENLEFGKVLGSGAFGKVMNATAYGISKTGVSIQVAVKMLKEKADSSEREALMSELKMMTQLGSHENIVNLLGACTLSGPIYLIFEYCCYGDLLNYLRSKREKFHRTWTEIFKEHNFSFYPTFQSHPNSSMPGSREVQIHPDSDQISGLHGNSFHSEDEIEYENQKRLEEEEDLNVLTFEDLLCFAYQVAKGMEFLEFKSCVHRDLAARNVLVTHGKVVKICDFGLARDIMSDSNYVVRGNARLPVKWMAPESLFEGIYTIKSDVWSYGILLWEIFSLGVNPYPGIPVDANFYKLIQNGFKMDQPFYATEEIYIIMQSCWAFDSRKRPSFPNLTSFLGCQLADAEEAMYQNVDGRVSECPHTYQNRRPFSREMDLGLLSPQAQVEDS

cytochrome P450 = conditions: cited from earlier work
hERG = hERG (Homo sapiens, UniProt Q12809); conditions: cited from earlier work
hERG, sequence (Q12809 whole entry): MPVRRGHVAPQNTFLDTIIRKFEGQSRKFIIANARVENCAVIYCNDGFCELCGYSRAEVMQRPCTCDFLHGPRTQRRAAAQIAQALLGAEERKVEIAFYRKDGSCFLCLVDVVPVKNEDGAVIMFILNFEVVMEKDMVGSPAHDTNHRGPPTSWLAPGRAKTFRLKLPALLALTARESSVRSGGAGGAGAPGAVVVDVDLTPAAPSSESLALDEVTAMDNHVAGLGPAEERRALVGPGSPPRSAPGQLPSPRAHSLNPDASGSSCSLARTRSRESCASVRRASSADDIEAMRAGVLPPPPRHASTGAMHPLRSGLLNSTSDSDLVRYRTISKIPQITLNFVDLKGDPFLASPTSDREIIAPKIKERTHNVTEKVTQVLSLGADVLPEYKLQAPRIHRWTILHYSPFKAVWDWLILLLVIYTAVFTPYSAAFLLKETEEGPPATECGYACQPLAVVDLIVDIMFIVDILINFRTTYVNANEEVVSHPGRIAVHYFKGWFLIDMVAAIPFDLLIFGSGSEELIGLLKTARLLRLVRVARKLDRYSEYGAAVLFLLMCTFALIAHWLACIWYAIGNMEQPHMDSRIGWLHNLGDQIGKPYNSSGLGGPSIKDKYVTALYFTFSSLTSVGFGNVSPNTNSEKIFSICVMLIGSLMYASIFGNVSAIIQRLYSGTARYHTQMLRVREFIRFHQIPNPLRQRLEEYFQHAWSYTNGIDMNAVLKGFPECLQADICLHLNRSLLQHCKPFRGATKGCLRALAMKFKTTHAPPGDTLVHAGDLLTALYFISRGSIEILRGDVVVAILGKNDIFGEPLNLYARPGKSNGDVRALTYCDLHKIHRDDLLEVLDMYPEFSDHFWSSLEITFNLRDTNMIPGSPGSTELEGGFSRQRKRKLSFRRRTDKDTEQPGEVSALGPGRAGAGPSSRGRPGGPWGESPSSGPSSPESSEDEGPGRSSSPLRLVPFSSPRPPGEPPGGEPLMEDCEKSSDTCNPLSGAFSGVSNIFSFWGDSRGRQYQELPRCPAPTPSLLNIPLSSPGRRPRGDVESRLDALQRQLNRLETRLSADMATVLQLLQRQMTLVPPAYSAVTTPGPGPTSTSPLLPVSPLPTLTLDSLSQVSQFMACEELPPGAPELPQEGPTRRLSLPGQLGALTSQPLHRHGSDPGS

[2] = Solubility of the compound of Formula (1) in non-ionic surfactants; format: physicochemical; conditions: thermodynamic from solid
Description: Approximately 3 mg of the compound of Formula (1) (monofumarate) was weighed out into clean HLPC vials. Various non-ionic surfactants were added in 200 or 300 μL portions up to 1 ml in total. After each addition, the sample was with vortexed (2×30 seconds) sonicated for 6 minutes, and once 1 ml total had been added the sample was kept in an oven at 45° C. for 40 minutes before being cooled to RT to aid dissolution. Observations are provided below:
Those excipients that have a melting point above ambient temperature were heated to above their melting point (e.g. 50° C.-70° C.) and observations were made in the liquid phase.

[3] = Aqueous solubility of salt versus free base; format: physicochemical
[4] = Stability / hygroscopicity of salts; format: physicochemical; conditions: e.g. due to lower hygroscopicity

time the suspension remained stable ([1]; 20% w/v aqueous Gelucire 44/14, 1.5 mg/mL): at least 10 days
time the suspension remained stable ([1]; 20% w/v aqueous Poloxamer P124, 1.5 mg/mL): at least 10 days
solubility ([1]; 20% w/v aqueous TPGS solution, 20% w/v aqueous TPGS, 100 μL DMSO solution added to 900 μL excipient solution, read-out: concentration solubilised (clear solution) in the aqueous vehicle): 1500 µg/mL
time the solution remained clear ([1]; 20% w/v aqueous TPGS, 1.5 mg/mL): up to 5 hours
solubility ([1]; 20% w/v aqueous Cremophor EL, Cremophor RH 40, Labrasol ALF, Solutol HS15, Poloxamer P124, TPGS, Gelucire 44/14, read-out: concentration solubilised by any tested excipient): ≤ 1500 µg/mL
SMILES: Cc1nn(C)cc1-c1nc2c(N3CCN(Cc4ccc(Cl)cc4)CC3)c(Cl)cnc2[nH]1 [compound of Formula (1), 6-chloro-7-(4-(4-chlorobenzyl)piperazin-1-yl)-2-(1,3-dimethyl-1H-pyrazol-4-yl)-3H-imidazo[4,5-b]pyridine]
activity against Aurora A (Aurora A): high activity
activity against Aurora B (Aurora B): high activity
activity against Aurora C (Aurora C): high activity
activity against FLT3 kinases (FLT3 kinases): high activity
interaction with cytochrome P450 activity (cytochrome P450): minimal interaction
interaction with hERG (hERG): minimal interaction

solubility at 40 min ([2]; Capryol 90 (non-ionic surfactant), oil or lipid, in Capryol 90 (fatty acid ester)): < 4600 µg/mL
solubility at 40 min ([2]; Capryol PC MG (non-ionic surfactant), oil or lipid, in Capryol PC MG (fatty acid ester)): < 3600 µg/mL
solubility at 40 min ([2]; Cremophor EL (non-ionic surfactant), organic solvent or mixture, in Cremophor EL (glycerol derivative)): < 4900 µg/mL
solubility at 40 min ([2]; Cremophor RH40 (non-ionic surfactant), organic solvent or mixture, in Cremophor RH40 (glycerol derivative)): < 4400 µg/mL
solubility at 40 min ([2]; Gelucire 44/14 (non-ionic surfactant), organic solvent or mixture, in Gelucire 44/14 (fatty acid ester/glycerol derivative)): < 3500 µg/mL
solubility at 40 min ([2]; Gelucire 50/13 (non-ionic surfactant), organic solvent or mixture, in Gelucire 50/13 (fatty acid ester/glycerol derivative)): < 2700 µg/mL
solubility at 40 min ([2]; Kollisolv P124 (non-ionic surfactant), organic solvent or mixture, in Kollisolv P124 (co-polymer)): < 4500 µg/mL
solubility at 40 min ([2]; Labrafac PC (non-ionic surfactant), oil or lipid, in Labrafac PC (fatty acid ester)): < 2100 µg/mL
solubility at 40 min ([2]; Labrafil 1944 (non-ionic surfactant), oil or lipid, in Labrafil 1944 (glycerol derivative)): < 5000 µg/mL
solubility at 40 min ([2]; Labrafil 2125 (non-ionic surfactant), oil or lipid, in Labrafil 2125 (glycerol derivative)): < 5500 µg/mL
solubility at 40 min ([2]; Labrasol ALF (non-ionic surfactant), organic solvent or mixture, in Labrasol ALF (glycerol derivative)): < 3500 µg/mL
solubility at 40 min ([2]; Miglyol 812N (non-ionic surfactant), oil or lipid, in Miglyol 812N (glycerol derivative)): < 3200 µg/mL
solubility at 40 min ([2]; Softisan 378 (non-ionic surfactant), oil or lipid, in Softisan 378 (glycerol derivative)): < 4300 µg/mL
solubility at 40 min ([2]; Tween 80 (non-ionic surfactant), organic solvent or mixture, in Tween 80 (sorbitan derivative), ~3 mg monofumarate, up to 1 ml, vortexed, sonicated, 45° C. 40 min): < 3700 µg/mL
solubility at 40 min ([2]; Vitamin E TPGS (non-ionic surfactant), organic solvent or mixture, in Vitamin E TPGS (vitamin E derivative)): < 3200 µg/mL
stability compared with other pharmaceutically acceptable salts [4]: greater stability
SMILES: Cc1nn(C)cc1-c1nc2c(N3CCN(Cc4ccc(Cl)cc4)CC3)c(Cl)cnc2[nH]1.O=C(O)/C=C/C(=O)O [compound of Formula (1) fumarate, 6-chloro-7-(4-(4-chlorobenzyl)piperazin-1-yl)-2-(1,3-dimethyl-1H-pyrazol-4-yl)-3H-imidazo[4,5-b]pyridine fumarate]
aqueous solubility compared with free base [3]: higher aqueous solubility than the free base
